{
  "source": "patent US6627649B1",
  "about": "“Pharmaceutical compositions containing in combination two antagonists selective of arginine-vassopressin V receptors, even of V1 a and V2 receptors” (Sanofi-Synthelabo, priority 1998, dated 2003)",
  "key": {"[1]": {"test_system": "normally hydrated conscious rat", "test": "water diuresis induced in the normally hydrated conscious rat (urinary volume, osmolality, Na+ and K+ excretion over 24 h)", "assay_type": "in vivo, Sprague Dawley male rats", "settings": "for effect on urinary excretion (in words) / effect on urinary excretion of Na+ and K+ ions (in words) / effect on urinary osmolality (in words): oral, over 24 hours", "protocol": "Serradeil-Le Gal et al., J. Clin. Invest. 1996, 98, 2729-2738.\nThe various assays are performed on Sprague Dawley male rats (280+/−20 g) obtained from Iffa Credo (France).\nTwenty four hours before the start of the study, the rats were randomized and placed in metabolic cages with food and water ad libitum. They received orally 3 ml/kg of a 0.6% aqueous solution of methylcellulose. The urines were collected over a 24 hour period, i.e. day D-1.\nThe next morning the rats are treated orally (solvent or products alone or in combination) and returned individually to their metabolic cage for a period of 24 hours with food and water ad libitum. The urines are collected over a period of 24 hours after treatment, i.e. day D-0.\nUrinary osmolality and the urinary excretion of Na^+ and K^+ ions are also measured during the 24 hour period before and after treatment. The urinary osmolality is measured with a freezing point depression osmometer (Fisk OS 110 model, Elvetec, Marseille, France) and the urinary concentrations of sodium and potassium are measured with a flame photometer (IL 943, Instruments Laboratories, Marseille, France).\nThe compounds alone (compound A, compound B) or in combination (compound A+compound B) are suspended in a 0.6% aqueous solution of methylcellulose and administered by gavage in a final volume of 3 ml/kg.\nCompound B was used in the form of its dihydrogen phosphate monohydrate salt, the doses indicated are expressed in terms of the base.\nThe results are expressed in the form of the mean+/−SEM (standard error of the mean). The statistical analysis of the results is performed by means of a two factor variance analysis with repeated measurements of the time factor. The comparison of the means is made with the aid of the Dunnett test for a comparison with respect to a time or group of reference. Only the values of p lower than 5% are considered to be significant (p<0.05).\nASSAY No. 1: Comparative effect on urinary excretion, urinary osmolality and excretion of the Na^+ and K^+ ions in the rat after oral administration of compound A alone, compound B alone and of the combination compound A^+ compound B.\na) Study Performed by Oral Administration of a Fixed Dose of Compound A (30 mg/kg) combined with increasing doses of compound B (0.3, 1 or 3 mg/kg).\nb) Study Performed by Oral Administration of a Fixed Dose of Compound B (1 mg/kg) combined with increasing doses of compound A (3,10 or 30 mg/kg)."}, "[2]": {"target": "human V2 receptors (Homo sapiens, UniProt P30518)", "sequence (P30518 whole entry)": "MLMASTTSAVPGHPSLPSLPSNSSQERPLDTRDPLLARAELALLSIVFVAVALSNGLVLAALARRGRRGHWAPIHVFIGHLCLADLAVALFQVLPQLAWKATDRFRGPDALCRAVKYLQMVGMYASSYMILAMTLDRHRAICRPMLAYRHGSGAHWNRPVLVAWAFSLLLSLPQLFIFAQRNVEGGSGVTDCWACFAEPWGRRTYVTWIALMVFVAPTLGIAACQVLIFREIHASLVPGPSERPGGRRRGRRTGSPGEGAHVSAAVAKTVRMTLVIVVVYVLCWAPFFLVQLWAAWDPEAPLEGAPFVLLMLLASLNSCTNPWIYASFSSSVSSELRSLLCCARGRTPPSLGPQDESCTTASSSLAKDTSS", "settings": "cited from earlier work"}, "[3]": {"target": "human V1a receptors (Homo sapiens, UniProt P37288)", "sequence (P37288 whole entry)": "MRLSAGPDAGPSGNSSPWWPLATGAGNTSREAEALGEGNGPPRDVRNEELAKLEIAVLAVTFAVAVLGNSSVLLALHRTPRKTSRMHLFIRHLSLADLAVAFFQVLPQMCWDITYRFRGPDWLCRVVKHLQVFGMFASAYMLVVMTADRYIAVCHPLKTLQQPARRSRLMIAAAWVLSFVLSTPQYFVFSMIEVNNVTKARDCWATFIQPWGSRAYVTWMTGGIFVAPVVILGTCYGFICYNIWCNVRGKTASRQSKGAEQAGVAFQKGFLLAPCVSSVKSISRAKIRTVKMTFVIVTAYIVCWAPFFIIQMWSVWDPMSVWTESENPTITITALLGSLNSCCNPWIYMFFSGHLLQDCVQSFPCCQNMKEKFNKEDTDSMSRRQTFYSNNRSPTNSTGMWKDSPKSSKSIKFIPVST", "settings": "various species, in particular human V1a receptors; J. Clin. Invest., 1993, 92 224-231; cited from earlier work"}, "[4]": {"settings": "study a, 0.3 mg/kg oral, D0 0-24 h after treatment"}, "[5]": {"settings": "study a, 0.3 mg/kg oral, D-0 0-24 h after treatment"}, "[6]": {"settings": "study a, 1 mg/kg oral, D0 0-24 h after treatment"}, "[7]": {"settings": "study a, 1 mg/kg oral, D-0 0-24 h after treatment"}, "[8]": {"settings": "study a, 3 mg/kg oral, D0 0-24 h after treatment"}, "[9]": {"settings": "study a, 3 mg/kg oral, D-0 0-24 h after treatment"}, "[10]": {"settings": "study a, group of 0.3 mg/kg oral, D-1 0-24 h, day before treatment (solvent only)"}, "[11]": {"settings": "study a, group of 1 mg/kg oral, D-1 0-24 h, day before treatment (solvent only)"}, "[12]": {"settings": "study a, group of 3 mg/kg oral, D-1 0-24 h, day before treatment (solvent only)"}, "[13]": {"settings": "study a, compound A 30 mg/kg, compound B 0.3, 1 or 3 mg/kg, alone or combined"}, "[14]": {"settings": "study b, 1 mg/kg oral, D0 0-24 h after treatment"}, "[15]": {"settings": "study b, group of 1 mg/kg oral, D-1 0-24 h, day before treatment (solvent only)"}, "[16]": {"settings": "study b, compound B 1 mg/kg alone or combined with compound A 3, 10 or 30 mg/kg"}, "[17]": {"settings": "study a, 30 mg/kg oral, D0 0-24 h after treatment"}, "[18]": {"settings": "study a, 30 mg/kg oral, D-0 0-24 h after treatment"}, "[19]": {"settings": "study a, group of 30 mg/kg oral, D-1 0-24 h, day before treatment (solvent only)"}, "[20]": {"settings": "study b, 30 mg/kg oral, D0 0-24 h after treatment"}, "[21]": {"settings": "study b, group of 30 mg/kg oral, D-1 0-24 h, day before treatment (solvent only)"}},
  "data": [
    {"compound": "CCOc1ccc2c(c1)C1(CCC(OCCN3CCOCC3)CC1)C(=O)N2S(=O)(=O)c1ccc(C(=O)NC(C)(C)C)cc1OC", "note": "(stereo not drawn) [Compound B, 1-{4-(N-tert-butylcarbamoyl)-2-methoxybenzenesulfonyl}-5-ethoxy-3-spiro{4-(2-morpholino-ethyloxy)cyclohexane}indol-2-one]", "values": [
      {"measurement": "urinary excretion of K+", "setting": "[1]; [4]", "value": 2254, "unit": "µmol"},
      {"measurement": "urinary excretion of Na+", "setting": "[1]; [4]", "value": 1668, "unit": "µmol"},
      {"measurement": "Urinary osmolality", "setting": "[1]; [5]", "value": "1075 +/− 165^a mOsmol/kg H2O"},
      {"measurement": "Urinary volume", "setting": "[1]; [5]", "value": "15 ± 2", "unit": "mL"},
      {"measurement": "urinary excretion of K+", "setting": "[1]; [6]", "value": 2334, "unit": "µmol"},
      {"measurement": "urinary excretion of Na+", "setting": "[1]; [6]", "value": 1783, "unit": "µmol"},
      {"measurement": "Urinary osmolality", "setting": "[1]; [7]", "value": "618 +/− 27^a mOsmol/kg H2O"},
      {"measurement": "Urinary volume", "setting": "[1]; [7]", "value": "25 +/− 2.2^a ml"},
      {"measurement": "urinary excretion of K+", "setting": "[1]; [8]", "value": 2648, "unit": "µmol"},
      {"measurement": "urinary excretion of Na+", "setting": "[1]; [8]", "value": 2168, "unit": "µmol"},
      {"measurement": "Urinary osmolality", "setting": "[1]; [9]", "value": "292 +/− 40^a mOsmol/kg H2O"},
      {"measurement": "Urinary volume", "setting": "[1]; [9]", "value": "72.9 +/− 11.1^a ml"},
      {"measurement": "Urinary osmolality", "setting": "[1]; [10]", "value": "1371 +/− 125 mOsmol/kg H2O"},
      {"measurement": "Urinary volume", "setting": "[1]; [10]", "value": "9.1 ± 0.7", "unit": "mL"},
      {"measurement": "urinary excretion of K+", "setting": "[1]; [10]", "value": 2001, "unit": "µmol"},
      {"measurement": "urinary excretion of Na+", "setting": "[1]; [10]", "value": 1772, "unit": "µmol"},
      {"measurement": "Urinary osmolality", "setting": "[1]; [11]", "value": "1376 +/− 99 mOsmol/kg H2O"},
      {"measurement": "Urinary volume", "setting": "[1]; [11]", "value": "9.1 ± 0.7", "unit": "mL"},
      {"measurement": "urinary excretion of K+", "setting": "[1]; [11]", "value": 2034, "unit": "µmol"},
      {"measurement": "urinary excretion of Na+", "setting": "[1]; [11]", "value": 1840, "unit": "µmol"},
      {"measurement": "Urinary osmolality", "setting": "[1]; [12]", "value": "1443 +/− 46 mOsmol/kg H2O"},
      {"measurement": "Urinary volume", "setting": "[1]; [12]", "value": "9.5 ± 0.6", "unit": "mL"},
      {"measurement": "urinary excretion of K+", "setting": "[1]; [12]", "value": 2022, "unit": "µmol"},
      {"measurement": "urinary excretion of Na+", "setting": "[1]; [12]", "value": 1903, "unit": "µmol"},
      {"measurement": "effect on urinary excretion (in words)", "setting": "[1]; [13]", "value": "significantly increases"},
      {"measurement": "effect on urinary excretion of Na+ and K+ ions (in words)", "setting": "[1]; [13]", "value": "no effect"},
      {"measurement": "effect on urinary osmolality (in words)", "setting": "[1]; [13]", "value": "significantly diminishes"},
      {"measurement": "Urinary osmolality", "setting": "[1]; [14]", "value": "616 +/− 51^a mOsmol/kg H2O"},
      {"measurement": "Urinary volume", "setting": "[1]; [14]", "value": "31.6 +/− 3.5^a ml"},
      {"measurement": "urinary excretion of K+", "setting": "[1]; [14]", "value": 2944, "unit": "µmol"},
      {"measurement": "urinary excretion of Na+", "setting": "[1]; [14]", "value": 2203, "unit": "µmol"},
      {"measurement": "Urinary osmolality", "setting": "[1]; [15]", "value": "1308 +/− 68 mOsmol/kg H2O"},
      {"measurement": "Urinary volume", "setting": "[1]; [15]", "value": "11.7 ± 1.5", "unit": "mL"},
      {"measurement": "urinary excretion of K+", "setting": "[1]; [15]", "value": 2519, "unit": "µmol"},
      {"measurement": "urinary excretion of Na+", "setting": "[1]; [15]", "value": 2039, "unit": "µmol"},
      {"measurement": "effect on urinary excretion (in words)", "setting": "[1]; [16]", "value": "significantly increases"},
      {"measurement": "effect on urinary excretion of Na+ and K+ ions (in words)", "setting": "[1]; [16]", "value": "no effect"},
      {"measurement": "effect on urinary osmolality (in words)", "setting": "[1]; [16]", "value": "significantly diminishes"},
      {"measurement": "V2 arginine vasopressin receptor antagonism (in words)", "setting": "[2]; various species, in particular human V2 receptors, J. Clin. Invest., 1996, 98, 2729-2738", "value": "potent and selective"}
    ]},
    {"compound": "COc1ccc(S(=O)(=O)N2c3ccc(Cl)cc3[C@](O)(c3ccccc3Cl)[C@@H]2C(=O)N2CCC[C@H]2C(N)=O)cc1OC", "note": "[Compound A, (2S)-1-{(2R,3S)-5-chloro-3-(2-chlorophenyl)-1-(3,4-dimethoxybenzenesulfonyl)-3-hydroxy-2,3-dihydro-1H-indole-2-carbonyl}pyrrolidine-2-carboxamide]", "values": [
      {"measurement": "urinary excretion of K+", "setting": "[1]; [17]", "value": 2190, "unit": "µmol"},
      {"measurement": "urinary excretion of Na+", "setting": "[1]; [17]", "value": 1668, "unit": "µmol"},
      {"measurement": "Urinary osmolality", "setting": "[1]; [18]", "value": "2462 +/− 379^ mOsmol/kg H2O"},
      {"measurement": "Urinary volume", "setting": "[1]; [18]", "value": "7.3 ± 1.2", "unit": "mL"},
      {"measurement": "Urinary osmolality", "setting": "[1]; [19]", "value": "1409 +/− 13 mOsmol/kg H2O"},
      {"measurement": "Urinary volume", "setting": "[1]; [19]", "value": "10.7 ± 1.1", "unit": "mL"},
      {"measurement": "urinary excretion of K+", "setting": "[1]; [19]", "value": 2265, "unit": "µmol"},
      {"measurement": "urinary excretion of Na+", "setting": "[1]; [19]", "value": 1903, "unit": "µmol"},
      {"measurement": "effect on urinary excretion (in words)", "setting": "[1]; [13]", "value": "does not modify"},
      {"measurement": "effect on urinary excretion of Na+ and K+ ions (in words)", "setting": "[1]; [13]", "value": "does not alter"},
      {"measurement": "effect on urinary osmolality (in words)", "setting": "[1]; [13]", "value": "does not modify"},
      {"measurement": "Urinary osmolality", "setting": "[1]; [20]", "value": "2462 +/− 379^ mOsmol/kg H2O"},
      {"measurement": "Urinary volume", "setting": "[1]; [20]", "value": "7.3 +/− 1.2^ ml"},
      {"measurement": "urinary excretion of K+", "setting": "[1]; [20]", "value": 2190, "unit": "µmol"},
      {"measurement": "urinary excretion of Na+", "setting": "[1]; [20]", "value": 1668, "unit": "µmol"},
      {"measurement": "Urinary osmolality", "setting": "[1]; [21]", "value": "1409 +/− 13 mOsmol/kg H2O"},
      {"measurement": "Urinary volume", "setting": "[1]; [21]", "value": "10.7 ± 1.1", "unit": "mL"},
      {"measurement": "urinary excretion of K+", "setting": "[1]; [21]", "value": 2265, "unit": "µmol"},
      {"measurement": "urinary excretion of Na+", "setting": "[1]; [21]", "value": 1903, "unit": "µmol"},
      {"measurement": "V1a arginine vasopressin receptor antagonism (in words)", "setting": "[3]", "value": "potent and selective"},
      {"measurement": "affinity for the V2 receptors (in words)", "setting": "[2]; literature description", "value": "low affinity"}
    ]}
  ]
}
